Measurements taken from ChEMBL document CHEMBL1201862, “PubChem BioAssay data set” (2004).
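Each compound was tested at five concentrations against cells in 96-well plates for 48 hours. GI50 = concentration required for 50% inhibition of growth.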 The source made the active and inactive calls. Rule as the data show it: active = GI50 up to about 1.1 µM and inactive = higher.

Tests used:
Assay in all cases: inhibition of tumour cell growth, NCI panel, 48 h
[1] = system: UO-31
[2] = system: A549
[3] = system: ACHN
[4] = system: SK-OV-3
[5] = system: IGROV-1
[6] = system: KM12
[7] = system: CCRF-CEM
[8] = system: HOP-62
[9] = system: NCI-H522
[10] = system: U-251
[11] = system: SNB-75
[12] = system: SF-539
[13] = system: SW-620
[14] = system: UACC-62
[15] = system: NCI-H23
[16] = system: SNB-19
[17] = system: OVCAR-4
[18] = system: RXF 393
[19] = system: SK-MEL-2
[20] = system: RPMI-8226

Measured: GI50

COc1ccc(CCn2cncn2)cc1
inactive: [1] > 100 µM | [2] > 100 µM | [3] > 100 µM | [4] > 100 µM | [5] > 100 µM | [6] > 100 µM | [7] > 100 µM | [8] > 100 µM | [9] > 100 µM | [10] > 100 µM | [11] > 100 µM | [12] > 100 µM | [13] > 100 µM | [14] > 100 µM | [15] > 100 µM | [16] > 100 µM | [17] > 100 µM

CC(=O)OCc1c(C)c2ccccc2n1C(C)=O
inactive: [1] > 100 µM | [2] 53 µM | [3] 25.3 µM | [4] 81.3 µM | [5] 36.8 µM | [6] 40.5 µM | [7] 18.1 µM | [8] 63.1 µM | [9] 20 µM | [18] 33 µM | [10] 36.3 µM | [11] 82.6 µM | [12] 38.2 µM | [13] 47 µM | [19] 21 µM | [14] 36.3 µM | [15] 55 µM | [16] > 100 µM | [17] 32.1 µM

Cn1cc(-c2csc(-c3cn(C)c4ccccc34)n2)c2ccccc21
inactive: [1] > 100 µM | [2] 37.6 µM | [3] 21.6 µM | [20] 20.7 µM | [5] 27 µM | [6] 43.3 µM | [7] > 100 µM | [8] 17.6 µM | [9] 76.7 µM | [18] 14.1 µM | [10] 32.4 µM | [13] 59.4 µM | [19] 38.8 µM | [14] 32.2 µM | [15] 84.5 µM | [16] 42.7 µM | [17] 22.2 µM

O=C1C=CC(=O)c2c(Cl)ccc(O)c21
inactive: [1] > 100 µM | [2] > 81.8 µM | [20] 5.66 µM | [4] > 100 µM | [5] 14.6 µM | [6] 52.7 µM | [8] > 100 µM | [9] 13.9 µM | [18] 16 µM | [10] > 57 µM | [11] 28.5 µM | [12] > 42.3 µM | [13] 11.6 µM | [19] 37.8 µM | [14] 16.8 µM | [15] 12.4 µM | [16] > 100 µM | [17] 18.5 µM

CN(C)C(=O)NCCN1CCCCCc2ccccc21
inactive: [1] > 100 µM | [2] > 100 µM | [3] > 100 µM | [20] > 100 µM | [4] > 100 µM | [5] > 100 µM | [6] > 100 µM | [7] 71.8 µM | [8] > 100 µM | [9] > 100 µM | [18] > 100 µM | [10] > 100 µM | [12] > 100 µM | [13] > 100 µM | [19] 89.7 µM | [14] > 100 µM | [15] 76.4 µM | [16] > 100 µM | [17] 78 µM

CC1=C2C3OC(=O)C(C)C3CCC2(C)C=C/C1=N\c1ccccc1 (stereo unspecified)
inactive: [1] > 100 µM | [2] > 100 µM | [4] > 100 µM | [5] > 100 µM | [6] > 100 µM | [7] > 100 µM | [8] > 100 µM | [9] > 100 µM | [18] > 100 µM | [10] > 100 µM | [11] > 53.3 µM | [12] > 100 µM | [13] > 100 µM | [19] > 100 µM | [14] > 100 µM | [15] > 100 µM | [16] > 100 µM | [17] > 100 µM

O=C1c2ccccc2N(O)C1(c1ccccc1)C1CCCC=C1N1CCOCC1 (stereo unspecified)
inactive: [1] 22.5 µM | [2] 50.4 µM | [3] > 100 µM | [20] 17.1 µM | [4] > 100 µM | [5] > 100 µM | [7] 40.7 µM | [8] > 100 µM | [9] 22.5 µM | [18] 22.4 µM | [10] 87.5 µM | [11] 18.4 µM | [12] 80.9 µM | [13] > 100 µM | [14] 35.8 µM | [15] > 100 µM | [16] 57.9 µM

O=c1nc(NC(c2ccccc2)(c2ccccc2)c2ccccc2)ccn1CCCl
inactive: [1] 47.6 µM | [2] 30 µM | [3] 27.8 µM | [20] 17.1 µM | [5] 19.3 µM | [6] 17.1 µM | [8] 21.5 µM | [9] 22.8 µM | [18] 16.1 µM | [10] 15.3 µM | [11] 17.6 µM | [12] 17.8 µM | [13] 24.1 µM | [19] 15.8 µM | [15] 23.2 µM | [16] 15.1 µM | [17] 20.6 µM

CC(=O)NNc1nc(C)c(C(=O)NNC(=O)C(=O)Nc2ccc([N+](=O)[O-])cc2C#N)s1
inactive: [1] > 100 µM | [2] > 100 µM | [3] 83.6 µM | [20] > 100 µM | [4] > 100 µM | [5] > 100 µM | [6] > 100 µM | [7] 32.7 µM | [8] > 100 µM | [9] 76 µM | [10] 52.7 µM | [12] > 100 µM | [13] 55.1 µM | [19] > 100 µM | [14] > 100 µM | [15] 96.4 µM | [16] > 100 µM | [17] 45.3 µM

CCOC(=O)/C=C/n1c2ccccc2c(=O)c2ccccc21
inactive: [1] > 100 µM | [2] > 100 µM | [3] > 100 µM | [20] > 100 µM | [5] > 100 µM | [6] > 100 µM | [7] > 100 µM | [8] > 100 µM | [9] > 100 µM | [18] > 100 µM | [10] > 100 µM | [12] > 100 µM | [13] > 100 µM | [19] > 100 µM | [14] > 100 µM | [15] > 100 µM | [16] > 100 µM | [17] > 100 µM

OC[C@H]1C[C@@H]2Cc3ccccc3N2N1
inactive: [2] > 100 µM | [3] > 100 µM | [4] > 100 µM | [5] > 100 µM | [6] > 100 µM | [7] > 100 µM | [8] > 100 µM | [9] > 100 µM | [18] > 100 µM | [10] > 100 µM | [11] > 100 µM | [12] > 100 µM | [13] > 100 µM | [19] > 100 µM | [14] > 100 µM | [15] > 100 µM | [16] > 100 µM | [17] > 100 µM

CC1CC/C(=C\c2ccc(N(C)C)cc2)C2=C1C(c1ccc(N(C)C)cc1)NC(=S)N2 (stereo unspecified)
inactive: [1] > 100 µM | [3] > 100 µM | [20] > 100 µM | [4] > 100 µM | [5] > 100 µM | [6] > 100 µM | [7] > 100 µM | [18] > 100 µM | [10] > 100 µM | [11] > 100 µM | [12] > 100 µM | [13] > 100 µM | [19] > 100 µM | [14] > 100 µM | [15] > 100 µM | [16] > 100 µM

CC(=O)Nc1ccc(C(=O)NN2C(=O)C(Cl)/C2=C/c2ccco2)cc1 (stereo unspecified)
inactive: [1] > 100 µM | [2] > 100 µM | [3] > 100 µM | [20] > 100 µM | [4] > 100 µM | [5] > 100 µM | [6] > 100 µM | [7] > 100 µM | [8] > 100 µM | [9] > 100 µM | [10] > 100 µM | [11] > 100 µM | [12] > 100 µM | [13] > 100 µM | [19] > 100 µM | [14] > 100 µM | [15] > 100 µM | [16] > 100 µM

COc1cccc(OCC(=N/NC(=O)c2ccncc2)/N=C/c2ccncc2)c1
inactive: [2] > 100 µM | [3] > 100 µM | [20] > 100 µM | [4] > 100 µM | [5] > 100 µM | [6] > 100 µM | [7] > 100 µM | [8] > 100 µM | [9] > 100 µM | [18] 52 µM | [10] > 100 µM | [12] > 100 µM | [13] > 100 µM | [19] > 100 µM | [14] > 100 µM | [15] > 100 µM | [16] > 100 µM | [17] > 100 µM

CC(=O)c1c2c(cc3c1CC1(Cc4cc5c(cc4C1)C(=O)CCC5)C3)CCCC2 (stereo unspecified)
inactive: [1] 9.4 µM | [2] > 21.5 µM | [3] 2.97 µM | [20] 3.48 µM | [4] > 54.8 µM | [5] 3.45 µM | [6] 5.3 µM | [7] 1.77 µM | [8] 5.09 µM | [9] 4.31 µM | [10] 10.8 µM | [11] 2.92 µM | [12] 4.17 µM | [13] 5.25 µM | [19] 2.88 µM | [15] 6.12 µM | [16] 13.8 µM | [17] 5.83 µM
